pIC50: −log10 of the molar value. Read-outs that look alike come from different tables or passages of the source.
What was measured:
B16F10 cells = experiment: Proliferation assay B16F10 (Method 3); assay type: cell-based, mouse; conditions: 4 days, crystal violet, read-out: Inhibition of Bc6F10 cell proliferation IC50
Protocol: (§1) Cultivated tumour cells (HeLa, human cervical tumour cells, ATCC CCL-2; NCI-H460, human non-small cell lung carcinoma cells, ATCC HTB-177; A2780, human ovarian carcinoma cells, ECACC #93112519; DU 145, hormone-independent human prostate carcinoma cells, ATCC HTB-81; HeLa-MaTu-ADR, multidrug-resistant human cervical carcinoma cells, EPO-GmbH Berlin; Caco-2, human colorectal carcinoma cells, ATCC HTB-37; B16F10, mouse melanoma cells, ATCC CRL-6475) were plated at a density of 5,000 cells/well (DU145, HeLa-MaTu-ADR), 3,000 cells/well (NCI-H460, HeLa), 2,500 cells/well (A2780), 1,500 cells/well (Caco-2), or 1,000 cells/well (B16F10) in a 96-well multititer plate in 200 μL of their respective growth medium supplemented 10% fetal calf serum. After 24 hours, the cells of one plate (zero-point plate) were stained with crystal violet (see below), while the medium of the other plates was replaced by fresh culture medium (200 μl), to which the test substances were added in various concentrations (0 μM, as well as in the range of 0.001-10 μM; the final concentration of the solvent dimethyl sulfoxide was 0.5%). The cells were incubated for 4 days in the presence of test substances. Cell proliferation was determined by staining the cells with crystal violet: the cells were fixed by adding 20 μl/measuring point of an 11% glutaric aldehyde solution for 15 minutes at room temperature. After three washing cycles of the fixed cells with water, the plates were dried at room temperature. The cells were stained by adding 100 μl/measuring point of a 0.1% crystal violet solution (pH 3.0). After three washing cycles of the stained cells with water, the plates were dried at room temperature. The dye was dissolved by adding 100 μl/measuring point of a 10% acetic acid solution. The extinction was determined by photometry at a wavelength of 595 nm. The change of cell number, in percent, was calculated by normalization of the measured values to the extinction values of the zero-point plate (=0%) and the extinction of the untreated (0 μm) cells (=100%). The IC50 values (inhibitory concentration at 50% of maximal effect) were determined by means of a 4 parameter fit.

HeLa-MaTu-ADR cells = experiment: Proliferation assay HeLa-MaTu-ADR (Method 3); assay type: cell-based, human; conditions: 4 days, crystal violet, read-out: Inhibition of HeLa-MaTu-ADR cell proliferation IC50
Protocol: as §1

CDK9/CycT1 = molecular target: T1, CDK9/CycT1 (Homo sapiens, UniProt P50750); experiment: CDK9/CycT1 high ATP kinase assay (Method 1b, TR-FRET); assay type: biochemical; conditions: 2 mM ATP; for Selectivity high ATP CDK9 over high ATP CDK2: IC50 (high ATP CDK2)/IC50 (high ATP CDK9): Methods 1b. and 2b.
T1 construct: Recombinant full-length His-tagged human CDK9 and CycT1; His; purchased Invitrogen PV4131; host or cells: insect cells
T1 sequence (P50750 whole entry): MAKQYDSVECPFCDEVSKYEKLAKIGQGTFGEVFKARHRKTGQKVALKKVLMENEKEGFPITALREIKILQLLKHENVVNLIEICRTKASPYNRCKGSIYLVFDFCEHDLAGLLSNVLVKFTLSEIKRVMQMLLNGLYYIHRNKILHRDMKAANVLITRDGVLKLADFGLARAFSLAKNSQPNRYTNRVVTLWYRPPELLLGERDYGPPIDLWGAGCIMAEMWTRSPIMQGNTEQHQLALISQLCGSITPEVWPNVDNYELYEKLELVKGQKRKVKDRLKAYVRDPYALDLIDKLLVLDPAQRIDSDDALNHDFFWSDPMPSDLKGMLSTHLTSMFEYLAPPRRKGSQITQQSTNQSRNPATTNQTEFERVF
T1 sequence (O60563 whole entry partner): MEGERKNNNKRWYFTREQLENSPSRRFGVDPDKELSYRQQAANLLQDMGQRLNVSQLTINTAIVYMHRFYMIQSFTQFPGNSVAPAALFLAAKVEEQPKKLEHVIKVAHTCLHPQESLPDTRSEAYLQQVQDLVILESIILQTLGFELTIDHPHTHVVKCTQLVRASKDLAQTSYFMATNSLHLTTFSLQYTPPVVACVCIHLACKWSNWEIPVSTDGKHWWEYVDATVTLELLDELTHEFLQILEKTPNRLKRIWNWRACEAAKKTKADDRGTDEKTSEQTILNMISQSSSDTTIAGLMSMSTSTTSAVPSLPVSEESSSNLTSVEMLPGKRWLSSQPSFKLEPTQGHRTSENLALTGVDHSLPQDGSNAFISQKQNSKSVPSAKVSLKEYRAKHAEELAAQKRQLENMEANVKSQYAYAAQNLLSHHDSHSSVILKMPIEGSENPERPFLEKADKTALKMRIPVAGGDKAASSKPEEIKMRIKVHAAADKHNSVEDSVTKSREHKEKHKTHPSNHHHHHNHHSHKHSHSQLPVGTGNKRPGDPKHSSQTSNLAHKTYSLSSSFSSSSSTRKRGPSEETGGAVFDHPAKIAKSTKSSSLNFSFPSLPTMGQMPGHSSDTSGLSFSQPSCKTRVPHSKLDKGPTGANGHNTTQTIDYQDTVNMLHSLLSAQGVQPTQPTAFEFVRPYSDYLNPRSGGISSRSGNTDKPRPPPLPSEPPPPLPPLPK
Protocol: 1b. CDK9/CycT1 High ATP Kinase Assay
CDK9/CycT1-Inhibitory Activity of Compounds of the Present Invention at a High ATP Concentration after Preincubation of Enzyme and Test Compounds was Quantified Employing the CDK9/CycT1 TR-FRET Assay as Described in the Following Paragraphs.
Recombinant full-length His-tagged human CDK9 and CycT1, expressed in insect cells and purified by Ni-NTA affinity chromatography, were purchase from Invitrogen (Cat. No PV4131). As substrate for the kinase reaction biotinylated peptide biotin-Ttds-YISPLKSPYKISEG (C-terminus in amid form) was used which can be purchased e.g. form the company JERINI peptide technologies (Berlin, Germany). For the assay 50 nl of a 100 fold concentrated solution of the test compound in DMSO was pipetted into a black low volume 384 well microtiter plate (Greiner Bio-One, Frickenhausen, Germany), 2 μl of a solution of CDK9/CycT1 in aqueous assay buffer [50 mM Tris/HCl pH 8.0, 10 mM MgCl2, 1.0 mM dithiothreitol, 0.1 mM sodium ortho-vanadate, 0.01% (v/v) Nonidet-P40 (Sigma)] were added and the mixture was incubated for 15 min at 22° C. to allow pre-binding of the test compounds to the enzyme before the start of the kinase reaction. Then the kinase reaction was started by the addition of 3 μl of a solution of adenosine-tri-phosphate (ATP, 3.3 mM=>final conc. in the 5 μl assay volume is 2 mM) and substrate (1.67 μM=>final conc. in the 5 μl assay volume is 1 μM) in assay buffer and the resulting mixture was incubated for a reaction time of 25 min at 22° C. The concentration of CDK9/CycT1 was adjusted depending of the activity of the enzyme lot and was chosen appropriate to have the assay in the linear range, typical concentrations were in the range of 0.5 μg/mL. The reaction was stopped by the addition of 5 μl of a solution of TR-FRET detection reagents (0.2 μM streptavidine-XL665 [Cisbio Bioassays, Codolet, France] and 1 nM anti-RB(pSer807/pSer811)-antibody from BD Pharmingen [#558389] and 1.2 nM LANCE EU-W1024 labeled anti-mouse IgG antibody [Perkin-Elmer, product no. AD0077]) in an aqueous EDTA-solution (100 mM EDTA, 0.2% (w/v) bovine serum albumin in 100 mM HEPES/NaOH pH 7.0).
The resulting mixture was incubated 1 h at 22° C. to allow the formation of complex between the phosphorylated biotinylated peptide and the detection reagents. Subsequently the amount of phosphorylated substrate was evaluated by measurement of the resonance energy transfer from the Eu-chelate to the streptavidine-XL. Therefore, the fluorescence emissions at 620 nm and 665 nm after excitation at 350 nm was measured in a HTRF reader, e.g. a Rubystar (BMG Labtechnologies, Offenburg, Germany) or a Viewlux (Perkin-Elmer). The ratio of the emissions at 665 nm and at […] was taken as the measure for the amount of phosphorylated substrate. The data were normalised (enzyme reaction without inhibitor=0% inhibition, all other assay components but no enzyme=100% inhibition).

DU145 cells = experiment: Proliferation assay DU145 (Method 3); assay type: cell-based, human; conditions: DU145, 4 days, crystal violet, read-out: Inhibition of DU145 cell proliferation IC50
Protocol: as §1

NCI-H460 cells = experiment: Proliferation assay NCI-H460 (Method 3); assay type: cell-based, human; conditions: NCI-H460, 4 days, crystal violet, read-out: Inhibition of NCI-H460 cell proliferation IC50
Protocol: as §1

SMILES | pIC50 (B16F10 cells; Mus musculus, B16-F10, 96 h) | pIC50 (HeLa-MaTu-ADR cells; Homo sapiens, 96 h) | pIC50 (CDK9/CycT1) | Selectivity high ATP CDK9 over high ATP CDK2: IC50 (high ATP CDK2)/IC50 (high ATP CDK9) (CDK9/CycT1) | pIC50 (DU145 cells; Homo sapiens, DU-145, 96 h) | pIC50 (NCI-H460 cells; Homo sapiens, NCI-H460, 96 h) | pIC50 (B16F10 cells) | pIC50 (HeLa-MaTu-ADR cells) | pIC50 (DU145 cells) | pIC50 (NCI-H460 cells)
CS(=N)(=O)Cc1cccc(Nc2ncc(F)c(-c3ccc(F)c4ccoc34)n2)c1 (single isomer, unassigned) [Example 5, 5-Fluoro-4-(4-fluoro-1-benzofuran-7-yl)-N-{3-[(S-methylsulfonimidoyl)-methyl]-phenyl}-pyrimidin-2-amine] | 6.59 | 6.72 | 8.25 | 143 | 6.73 | 6.46 |  |  |  | 
CS(=O)(Cc1cc(F)cc(Nc2ncc(F)c(-c3ccc(F)c4ccoc34)n2)c1)=NC#N (single isomer, unassigned) [Example 8, [(3-Fluoro-5-{[5-fluoro-4-(4-fluoro-1-benzofuran-7-yl)pyrimidin-2-yl]amino}benzyl)(methyl)-oxido-λ^6-sulfanylidene]cyanamide] | 7.25 | 7.46 | 9.00 | 812 | 7.47 | 6.92 |  |  |  | 
CS(=N)(=O)Cc1cc(F)cc(Nc2ncc(F)c(-c3ccc(F)c4ccoc34)n2)c1 (single isomer, unassigned) [Example 11, 5-Fluoro-4-(4-fluoro-1-benzofuran-7-yl)-N-{3-fluoro-5-[(S-methylsulfonimidoyl)-methyl]-phenyl}-pyrimidin-2-amine] |  |  | 8.43 | 247 | 7.39 | 7.08 | 7.35 | 6.70 |  | 
CS(=N)(=O)Cc1cc(Nc2ncc(F)c(-c3ccc(F)c4ccoc34)n2)cc(S(F)(F)(F)(F)F)c1 (racemic) [Example 18, (rac)-5-Fluoro-4-(4-fluoro-1-benzofuran-7-yl)-N-{3-[(S-methylsulfonimidoyl)methyl]-5-(pentafluoro-λ^6-sulfanyl)phenyl}pyrimidin-2-amine] | 6.77 | 6.94 | 8.36 | 350 | 6.85 | 6.87 |  |  |  | 
CS(=O)(Cc1cc(Nc2ncc(F)c(-c3ccc(F)c4ccoc34)n2)cc(S(F)(F)(F)(F)F)c1)=NC#N (racemic) [Example 17, (rac)-{[3-{[5-fluoro-4-(4-fluoro-1-benzofuran-7-yl)pyrimidin-2-yl]amino}-5-(pentafluoro-λ^6-sulfanyl)benzyl](methyl)oxido-λ^6-sulfanylidene}cyanamide] | 6.93 | 7.01 | 8.13 | 197 | 7.03 | 6.72 |  |  |  | 
CS(=O)(Cc1cccc(Nc2ncc(F)c(-c3ccc(F)c4ccoc34)n2)c1)=NC#N (racemic) [Example 1, (rac)-[(3-{[5-Fluoro-4-(4-fluoro-1-benzofuran-7-yl)pyrimidin-2-yl]amino}benzyl)(methyl)oxido-λ^6-sulfanylidene]cyanamide] | 6.77 | 6.87 | 9.05 | 622 | 6.95 | 6.72 |  |  |  | 
CS(=N)(=O)Cc1cc(F)cc(Nc2ncc(F)c(-c3ccc(F)c4ccoc34)n2)c1 (racemic) [Example 10, (rac)-5-Fluoro-4-(4-fluoro-1-benzofuran-7-yl)-N-{3-fluoro-5-[(S-methylsulfonimidoyl)-methyl]-phenyl}-pyrimidin-2-amine] | 7.24 |  | 8.49 | 563 | 7.14 | 6.95 |  |  |  | 
Cc1cc(CS(C)(=O)=NC#N)cc(Nc2ncc(F)c(-c3ccc(F)c4ccoc34)n2)c1 (racemic) [Example 13, (rac)-[(3-{[5-Fluoro-4-(4-fluoro-1-benzofuran-7-yl)pyrimidin-2-yl]amino}-5-methylbenzyl)-(methyl)oxido-λ^6-sulfanylidene]cyanamide] | 7.31 | 7.43 | 9.06 | 1364 | 7.07 | 6.93 |  |  |  | 
Cc1cc(CS(C)(=O)=NC#N)cc(Nc2ncc(F)c(-c3ccc(F)c4ccoc34)n2)c1 (single isomer, unassigned) [Example 15, [(3-{[5-Fluoro-4-(4-fluoro-1-benzofuran-7-yl)pyrimidin-2-yl]amino}-5-methylbenzyl)-(methyl)oxido-λ^6-sulfanylidene]cyanamide] |  |  | 8.80 | 522 |  |  | 6.94 | 6.96 | 7.00 | 6.92
Cc1cc(CS(C)(=N)=O)cc(Nc2ncc(F)c(-c3ccc(F)c4ccoc34)n2)c1 (racemic) [Example 16, (rac)-5-Fluoro-4-(4-fluoro-1-benzofuran-7-yl)-N-{3-methyl-5-[(S-methylsulfonimidoyl)-methyl]phenyl}pyrimidin-2-amine] | 7.09 | 7.39 | 8.19 | 77 | 6.97 | 6.92 |  |  |  | 
Cc1cc(CS(C)(=O)=NC#N)cc(Nc2ncc(F)c(-c3ccc(F)c4ccoc34)n2)c1 (single isomer, unassigned) [Example 14, [(3-{[5-Fluoro-4-(4-fluoro-1-benzofuran-7-yl)pyrimidin-2-yl]amino}-5-methylbenzyl)-(methyl)oxido-λ^6-sulfanylidene]cyanamide] | 7.16 | 7.24 | 8.66 | 385 | 7.18 | 6.95 |  |  |  | 
